Data reported in patent US20110281807A1, “PLANT DISEASE CONTROL AGENT COMPRISING D-TAGATOSE AS ACTIVE INGREDIENT, AND PLANT DISEASE CONTROL METHOD” (NATIONAL UNIVERSITY CORPORATION KAGAWA UNIVERSITY, priority 2008, published 2011).
Where two headings read alike, the source gives them in different places.

What was measured:
Pythium aphanidermatum = test: cucumber damping-off, pot test: soil drench of D-tagatose combined with fungicides; settings: for Preventive value: alone, 50 ppm, soil drench
Experimental: Five seeds of test plants (cucumber, variety: Sagami hanpaku) were sowed in a pot (5×5 cm), which contains infested soil with Pythium aphanidermatum (mycelium 100 g/1 L soil) and was covered with soil. D-Tagatose was diluted to 5000 ppm and the fungicides were diluted to the concentrations listed in table 18, with distilled water. The pot was drenched with 10 ml of the dilution. After 2 weeks, the disease severity of the test plants was observed and the effectiveness of test sample was judged. Tests were carried out in triplicate using 5 plants for each test set and the preventive value was calculated from the germination rate.

Pyricularia oryze = test: whole plant or invertebrate; format: in vivo
Plasmopara viticola = settings: for Preventive value: alone
Experimental: Test plants (variety: Neo Muscat) were seeded and grown until three leaves. D-Tagatose was diluted to 5000 ppm and the fungicides were diluted to the concentrations listed in table 16, with distilled water, and 10 ml of the dilution was sprayed on the plants. Three days after the spraying of the dilution, the plants were infected by spraying a sporangium suspension of Plasmopara viticola containing 1×10^3/ml and then put for 16 hours in an inoculation chamber (20° C. to 23° C.) to promote disease. The disease severity of the test plants was observed 7 days after inoculation, and the effectiveness of test sample was judged.

[1] = test system: Pseudoperonospora cubensis; settings: for Preventive value: alone, curative
Experimental: Test plants (cucumber, variety: Sagami hanpaku) were seeded and grown until the one true leaf stage. And then, a sporangium suspension of Pseudoperonospora cubensis containing 1×10^3/ml were spraying for inoculation on the back side of the leaves of test plants and then put for 16 hours in an inoculation chamber (20° C. to 23° C.) to promote disease. For a curative test, the inoculated plants as described above were used.
D-Tagatose was diluted to 5000 ppm and the fungicides were diluted to the concentrations listed in table 15, with distilled water, and 10 ml of the dilution was sprayed. Seven days after inoculation the disease severity of the test plants was observed and the effectiveness of test sample was judged.

[2] = test system: Erysiphe graminis f.sp. hordei
[3] = test system: Pseudoperonospora cubensis; settings: for Preventive value: alone
Phytophthora infestans = test: whole plant or invertebrate; format: in vivo; settings: for Preventive value: alone
[4] = Plasmopara viticola, 168 h, read-out: Preventive value
[5] = Pseudoperonospora cubensis, in Cucumis sativus, 168 h, read-out: Preventive value
[6] = Puccinia recondita, in Triticum aestivum, 168 h, read-out: Preventive value
[7] = Blumeria graminis, in Hordeum vulgare, 168 h, read-out: Preventive value
[8] = Botrytis cinerea, in Solanum lycopersicum, 168 h, read-out: Preventive value
[9] = Phytophthora infestans, in Solanum lycopersicum, 168 h, read-out: Preventive value
[10] = Podosphaera fuliginea, in Cucumis sativus, 168 h, read-out: Preventive value
[11] = Pythium aphanidermatum, in Cucumis sativus, soil, 336 h, read-out: Preventive value
[12] = Pyricularia, in Oryza sativa, 168 h, read-out: Preventive value

Experimental for Botrytis cinerea: Test plants (tomato, variety: Ogata-fukujyu) were seeded and grown until the three leaf stage. D-Tagatose and fungicide were diluted to 10000 ppm and the concentrations liste in table 23, respectively, with distilled water and 10 ml of the dilution was sprayed on the plants. Three days after spraying the solution, condia suspension of Botrytis cinerea were inoculated by spraying on test plants and then put for 16 hours in an inoculation chamber (20° C. to 23° C.) to promote disease. Seven days after inoculation, the disease severity of the test plants was observed and the effectiveness of test sample was judged.
Experimental for Puccinia recondita: Test plants (variety: Nourin 61 gou) were sowed and grown until two leaves stage.
D-Tagatose and fungicide were diluted to 10000 ppm and the concentration listed in table 19, respectively, with distilled water, and 10 ml of the dilution was sprayed thoroughly on the plants. Three days after the spraying of the dilution, the plants were inoculated with Puccinia recondita containing 1×10^3/ml and then put for 16 hours in an inoculation chamber (20° C. to 23° C.) to promote disease. Seven days after inoculation the disease severity of the test plants was observed and the effectiveness of test sample was judged.
Experimental for Sphaerotheca fuliginea: Test plants (cucumber, variety: Sagami hanpaku) were seeded and grown until the one true leaf stage. D-Tagatose and fungicide were diluted to 5000 ppm and the concentrations listed in table 20, respectively, with distilled water and 10 ml of the dilution was sprayed thoroughly on the plants. Three days after spraying, a condia suspension containing of Sphaerotheca fuliginea were inoculated by spraying on test plants.
Seven days after inoculation the disease severity of the test plants was observed and the effectiveness of test sample was judged.

Q: `Cc1c(Br)c2ccc(F)cc2n1S(=O)(=O)c1ncn(S(=O)(=O)N(C)C)n1` [amisulbrom] was tested. Which Preventive value (Pythium aphanidermatum) did it give?
A: 83

Q: How did the Preventive value (Pyricularia oryze; rice, compound alone, 10 ppm) turn out when `CO/C=C(/C(=O)OC)c1ccccc1Oc1cc(Oc2ccccc2C#N)ncn1` [azoxystrobin] was run?
A: 83

Q: What about the Preventive value (Plasmopara viticola; 10 ppm) of the same compound?
A: 83

Q: And the Preventive value ([1]; 10 ppm)?
A: 50

Q: And the Preventive value (Puccinia recondita; wheat, compound alone, 2 ppm)?
A: 83

Q: And the Preventive value ([2]; barley, compound alone, 0.4 ppm)?
A: 50

Q: And the Preventive value (Botrytis cinerea; tomato, compound alone, 50 ppm)?
A: 50

Q: What about the Preventive value ([3]; 10 ppm) of the same compound?
A: 50

Q: And the Preventive value (Phytophthora infestans; 10 ppm)?
A: 83

Q: What about the Preventive value (Sphaerotheca fuliginea; cucumber, compound alone, 0.4 ppm) of the same compound?
A: 67

Q: What about the Preventive value (Pythium aphanidermatum) of the same compound?
A: 50

Q: How did the pest or weed control at 0.4 ppm (Plasmopara viticola; [4]) turn out when `CC(C)OC(=O)N[C@H](C(=O)N[C@H](C)c1nc2ccc(F)cc2s1)C(C)C` [benthiavalicarb-isopropyl] was run?
A: 50%

Q: And the pest or weed control at 0.4 ppm [1, 5]?
A: 33%

Q: And the pest or weed control at 250 ppm (Puccinia recondita; [6])?
A: 0%

Q: And the pest or weed control at 250 ppm [2, 7]?
A: 0%

Q: What about the pest or weed control at 250 ppm (Botrytis cinerea; [8]) of the same compound?
A: 0%

Q: What about the pest or weed control at 0.4 ppm [3, 5] of the same compound?
A: 73%

Q: And the pest or weed control at 0.4 ppm (Phytophthora infestans; [9])?
A: 73%

Q: What about the pest or weed control at 250 ppm (Sphaerotheca fuliginea; [10]) of the same compound?
A: 0%

Q: And the pest or weed control at 250 ppm (Pythium aphanidermatum; [11])?
A: 0%

Q: Which results are given for `O=C(Nc1ccccc1-c1ccc(Cl)cc1)c1cccnc1Cl` [boscalid]?
A: pest or weed control at 2 ppm (Puccinia recondita; [6]): 67%; pest or weed control at 0.4 ppm [2, 7]: 17%; pest or weed control at 10 ppm (Botrytis cinerea; [8]): 67%; pest or weed control at 0.4 ppm (Sphaerotheca fuliginea; [10]): 67%

Q: For `N#Cc1c(Cl)c(Cl)c(Cl)c(C#N)c1Cl` [chlorothalonil], which pest or weed control at 50 ppm (Plasmopara viticola; [4]) is on record?
A: 73%

Q: And the pest or weed control at 50 ppm [1, 5]?
A: 0%

Q: What about the pest or weed control at 50 ppm (Puccinia recondita; [6]) of the same compound?
A: 83%

Q: What about the pest or weed control at 50 ppm [2, 7] of the same compound?
A: 33%

Q: What about the pest or weed control at 50 ppm (Botrytis cinerea; [8]) of the same compound?
A: 67%

Q: And the pest or weed control at 50 ppm [3, 5]?
A: 83%

Q: What about the pest or weed control at 50 ppm (Phytophthora infestans; [9]) of the same compound?
A: 83%

Q: And the pest or weed control at 50 ppm (Sphaerotheca fuliginea; [10])?
A: 50%

Q: For `[Cu+2].[OH-].[OH-]` [cupric hydroxide], which Preventive value (Plasmopara viticola; 50 ppm) is on record?
A: 0

Q: What about the Preventive value ([1]; 50 ppm) of the same compound?
A: 0

Q: What about the Preventive value ([3]; 50 ppm) of the same compound?
A: 40

Q: And the Preventive value (Phytophthora infestans; 50 ppm)?
A: 50

Q: For `Cc1ccc(-c2c(Cl)nc(C#N)n2S(=O)(=O)N(C)C)cc1` [cyazofamid], which pest or weed control at 250 ppm (Pyricularia oryze; [12]) is on record?
A: 0%

Q: What about the pest or weed control at 0.4 ppm (Plasmopara viticola; [4]) of the same compound?
A: 50%

Q: What about the pest or weed control at 0.4 ppm [1, 5] of the same compound?
A: 0%

Q: And the pest or weed control at 250 ppm (Puccinia recondita; [6])?
A: 0%

Q: What about the pest or weed control at 250 ppm [2, 7] of the same compound?
A: 0%

Q: What about the pest or weed control at 250 ppm (Botrytis cinerea; [8]) of the same compound?
A: 0%

Q: What about the pest or weed control at 0.4 ppm [3, 5] of the same compound?
A: 73%

Q: And the pest or weed control at 0.4 ppm (Phytophthora infestans; [9])?
A: 17%

Q: And the pest or weed control at 250 ppm (Sphaerotheca fuliginea; [10])?
A: 0%

Q: And the pest or weed control at 50 ppm (Pythium aphanidermatum; [11])?
A: 83%

Q: What does the source list for `O=C(Cc1ccccc1)N/C(=N\OCC1CC1)c1c(C(F)(F)F)ccc(F)c1F` [cyflufenamid]?
A: pest or weed control at 0.4 ppm [2, 7]: 67%; pest or weed control at 0.4 ppm (Sphaerotheca fuliginea; [10]): 50%

Q: With `CCNC(=O)NC(=O)/C(C#N)=N/OC` [cymoxanil] as the compound, how does the pest or weed control at 50 ppm (Plasmopara viticola; [4]) read?
A: 73%

Q: What about the pest or weed control at 50 ppm [1, 5] of the same compound?
A: 83%

Q: What about the pest or weed control at 50 ppm [3, 5] of the same compound?
A: 33%

Q: What about the pest or weed control at 50 ppm (Phytophthora infestans; [9]) of the same compound?
A: 83%

Q: And the pest or weed control at 250 ppm (Pythium aphanidermatum; [11])?
A: 17%

Q: Which pest or weed control at 250 ppm (Pyricularia oryze; [12]) does the source give for `Cc1cc(C2CC2)nc(Nc2ccccc2)n1` [cyprodinil] here?
A: 73%

Q: What about the pest or weed control at 250 ppm (Plasmopara viticola; [4]) of the same compound?
A: 0%

Q: And the pest or weed control at 250 ppm [1, 5]?
A: 0%

Q: And the pest or weed control at 250 ppm (Puccinia recondita; [6])?
A: 67%

Q: What about the pest or weed control at 10 ppm [2, 7] of the same compound?
A: 17%

Q: What about the pest or weed control at 10 ppm (Botrytis cinerea; [8]) of the same compound?
A: 73%

Q: What about the pest or weed control at 250 ppm [3, 5] of the same compound?
A: 0%

Q: What about the pest or weed control at 250 ppm (Phytophthora infestans; [9]) of the same compound?
A: 0%

Q: And the pest or weed control at 10 ppm (Sphaerotheca fuliginea; [10])?
A: 67%

Q: And the pest or weed control at 250 ppm (Pythium aphanidermatum; [11])?
A: 0%

Q: Which results are given for `COc1ccc(C(=CC(=O)N2CCOCC2)c2ccc(Cl)cc2)cc1OC` [dimethomorph]?
A: pest or weed control at 10 ppm (Plasmopara viticola; [4]): 50%; pest or weed control at 10 ppm [1, 5]: 40%; pest or weed control at 10 ppm [3, 5]: 67%; pest or weed control at 10 ppm (Phytophthora infestans; [9]): 73%; pest or weed control at 250 ppm (Pythium aphanidermatum; [11]): 0%

Q: Which pest or weed control at 2 ppm (Plasmopara viticola; [4]) does the source give for `CSC1=N[C@@](C)(c2ccccc2)C(=O)N1Nc1ccccc1` [fenamidone] here?
A: 83%

Q: What about the pest or weed control at 2 ppm [1, 5] of the same compound?
A: 33%

Q: And the pest or weed control at 2 ppm [3, 5]?
A: 33%

Q: What about the pest or weed control at 2 ppm (Phytophthora infestans; [9]) of the same compound?
A: 83%

Q: What about the pest or weed control at 10 ppm (Pythium aphanidermatum; [11]) of the same compound?
A: 50%

Q: What does the source list for `O=[N+]([O-])c1cc(C(F)(F)F)c(Cl)c([N+](=O)[O-])c1Nc1ncc(C(F)(F)F)cc1Cl` [fluazinam]?
A: pest or weed control at 10 ppm (Pyricularia oryze; [12]): 50%; pest or weed control at 10 ppm (Plasmopara viticola; [4]): 83%; pest or weed control at 10 ppm [1, 5]: 0%; pest or weed control at 50 ppm (Puccinia recondita; [6]): 83%; pest or weed control at 250 ppm [2, 7]: 83%; pest or weed control at 50 ppm (Botrytis cinerea; [8]): 67%; pest or weed control at 10 ppm [3, 5]: 97%; pest or weed control at 10 ppm (Phytophthora infestans; [9]): 83%; pest or weed control at 250 ppm (Sphaerotheca fuliginea; [10]): 83%

Q: With `N#Cc1c[nH]cc1-c1cccc2c1OC(F)(F)O2` [fludioxonil] as the compound, how does the pest or weed control at 50 ppm (Pyricularia oryze; [12]) read?
A: 83%

Q: What about the pest or weed control at 10 ppm (Plasmopara viticola; [4]) of the same compound?
A: 33%

Q: And the pest or weed control at 10 ppm [1, 5]?
A: 0%

Q: What about the pest or weed control at 50 ppm (Puccinia recondita; [6]) of the same compound?
A: 17%

Q: What about the pest or weed control at 250 ppm [2, 7] of the same compound?
A: 73%

Q: What about the pest or weed control at 2 ppm (Botrytis cinerea; [8]) of the same compound?
A: 67%

Q: And the pest or weed control at 10 ppm [3, 5]?
A: 57%

Q: And the pest or weed control at 10 ppm (Phytophthora infestans; [9])?
A: 0%

Q: And the pest or weed control at 250 ppm (Sphaerotheca fuliginea; [10])?
A: 73%

Q: What about the pest or weed control at 250 ppm (Pythium aphanidermatum; [11]) of the same compound?
A: 0%
